From patent publication US9045463B2, “Phenyl ethynyl derivatives as hepatitis C virus inhibitors” (Janssen R&D Ireland, priority 2009, dated 2015) come the findings set out here.

pEC50: −log10 of the molar value.

For the assay, the system named is HCV replicon (wild type NS3-NS5B regions of HCV type 1b) in Huh-7 luc/neo cells. The assay is described as follows: HCV replicon assay (Huh-Luc cells, luciferase read-out). The format is cell-based. Conditions: Hepatitis C virus, Huh-7, 72 h, three days incubation, luciferase activity. An excerpt: The in vitro antiviral activity against HCV of the compounds of formula I can be tested in a cellular HCV replicon system based on Lohmann et al. (1999) Science 285:110-113, with the further modifications described by Krieger et al. (2001) Journal of Virology 75: 4614-4624 (incorporated herein by reference), which is further exemplified in the examples section. This model, while not a complete infection model for HCV, is widely accepted as the most robust and efficient model of autonomous HCV RNA replication currently available. It will be appreciated that it is important to distinguish between compounds that specifically interfere with HCV functions from those that exert cytotoxic or cytostatic effects in the HCV replicon model, and as a consequence cause a decrease in HCV RNA or linked reporter enzyme concentration. Assays are known in the field for the evaluation of cellular cytotoxicity based for example on the activity of mitochondrial enzymes using fluorogenic redox dyes such as resazurin. Furthermore, cellular counter screens exist for the evaluation of non-selective inhibition of linked reporter gene activity, such as firefly luciferase. Appropriate cell types can be equipped by stable transfection with a luciferase reporter gene whose expression is dependent on a constitutively active gene promoter, and such cells can be used as a counter-screen to eliminate non-selective inhibitors.
The compounds of formula (I) were examined for inhibitory activity in the HCV replicon. This cellular assay is based on a bicistronic expression construct, as described by Lohmann et al. (1999) Science vol. 285 pp. 110-113 with modifications described by Krieger et al. (2001) Journal of Virology 75: 4614-4624, in a multi-target screening strategy.
In essence, the method was as follows:
The assay utilized the stably transfected cell line Huh-7 luc/neo (hereafter referred to as Huh-Luc). This cell line harbors an RNA encoding a bicistronic expression construct comprising the wild type NS3-NS5B regions of HCV type 1b translated from an Internal Ribosome Entry Site (IRES) from encephalomyocarditis virus (EMCV), preceded by a reporter portion (FfL-luciferase), and a selectable marker portion (neo^R, neomycine phosphotransferase). The construct is flanked by 5′ and 3′ NTRs (non-translated regions) from HCV type 1b. Continued culture of the replicon cells in the presence of G418 (neo^R) is dependent on the replication of the HCV RNA. The stably transfected replicon cells that express HCV RNA, which replicates autonomously and to high levels, encoding inter alia luciferase, were used for screening the antiviral compounds.
The replicon cells were plated in 384 well plates in the presence of the test and control compounds which were added in various concentrations. Following an incubation of three days, HCV replication was measured by assaying luciferase activity (using standard luciferase assay substrates and reagents and a Perkin Elmer ViewLux™ ultraHTS microplate imager). Replicon cells in the control cultures have high luciferase expression in the absence of any inhibitor. The inhibitory activity of the compound on luciferase activity was monitored on the Huh-Luc cells, enabling a dose-response curve for each test compound. EC50 values were then calculated, which represent the amount of compound required to decrease the level of detected luciferase activity by 50%, or more specifically, to reduce the ability of the genetically linked HCV replicon RNA to replicate.
Take `O=C(Cc1cccnc1)N1CCC[C@H]1c1ncc(C#Cc2ccc(-c3cnc([C@@H]4CCCN4C(=O)Cc4cccnc4)[nH]3)cc2)[nH]1` [Compound 2]: the pEC50 is 8.82.
In the case of `CNC(=O)N[C@H](C(=O)N1CCC[C@H]1c1ncc(C#Cc2ccc(-c3cnc([C@@H]4CCCN4C(=O)[C@@H](NC(=O)NC)C(C)C)[nH]3)cc2)[nH]1)C(C)C` [Compound 36] it was 9.16; in that of `O=C(Nc1ccccc1)N1CCC[C@H]1c1ncc(C#Cc2ccc(-c3cnc([C@@H]4CCCN4C(=O)Nc4ccccc4)[nH]3)cc2)[nH]1` [Compound 3], 6.09; in that of `O=C([C@@H](c1ccccc1)N1CCCCC1)N1CCC[C@H]1c1ncc(C#Cc2ccc(-c3cnc([C@@H]4CCCN4C(=O)[C@@H](c4ccccc4)N4CCCCC4)[nH]3)cc2)[nH]1` [Compound 37], 10.52.
In the case of `COC(=O)N[C@H](C(=O)N1CCC[C@H]1c1ncc(C#Cc2ccc(-c3cnc([C@@H]4CCCN4C(=O)[C@@H](NC(=O)OC)C(C)C)[nH]3)cc2)[nH]1)C(C)C` [Compound 28] it was 10.44; in that of `CC(=O)N[C@@H](C(=O)N1CCC[C@H]1c1ncc(C#Cc2ccc(-c3cnc([C@@H]4CCCN4C(=O)[C@H](NC(C)=O)c4ccccc4)[nH]3)cc2)[nH]1)c1ccccc1` [Compound 32], over 9.32.
The figure for `O=C(CC1CCCCC1)N1CCC[C@H]1c1ncc(C#Cc2ccc(-c3cnc([C@@H]4CCCN4C(=O)CC4CCCCC4)[nH]3)cc2)[nH]1` [Compound 4] is 6.89; for `CC(C)[C@@H](C(=O)N1CCC[C@H]1c1ncc(C#Cc2ccc(-c3cnc([C@@H]4CCCN4C(=O)[C@H](C(C)C)N(C)C)[nH]3)cc2)[nH]1)N(C)C` [Compound 21] it is 7.44.
